Laboratory results published in publication PMC9103715, “New Panx-1 Blockers: Synthesis, Biological Evaluation and Molecular Dynamic Studies” (International Journal of Molecular Sciences, 2022).

Tests used:
Panx-1 channels [1] = target: T1, Panx-1 channels (Mus musculus, UniProt Q9JIP4); experiment: Voltage clamp on Xenopus laevis oocytes expressing Panx-1 channels; format: cell-based; settings: for inhibition at 50 µM / I (%) inhibition of Panx-1 currents: voltage clamp, Xenopus laevis oocytes expressing Panx-1 channels, 50 µM; for inhibition at 50 µM: read-out: I (%) inhibition of Panx-1 currents
T1 construct: expressed in transfected cells; host or cells: Xenopus laevis oocytes injected with in vitro-transcribed mRNA
Method: All new products were screened as Panx-1 blockers at the dose of 50 µM using the Voltage Clamp technique on Xenopus Laevis oocytes expressing Panx-1 channels. The membrane potential of the cells was held at -60 mV and voltage steps to +60 mV were applied to induce membrane currents. To verify that Panx-1 channels carried the currents, in each experiment 100 µM carbenoxolone (CBX) was applied. At this concentration, CBX is known to yield 100% inhibition of Panx-1 activity. If present, leak currents resistant to CBX were subtracted from the total current to assess % inhibition mediated by the tested compounds. Table 1 and Table 2 report the electrophysiological results of naphthalene-2-sulphonic acid derivatives bearing at position 5 an amino- (3a–e, 4 and 5) or amide group (7a–g, 8 and 9) and of compound 13.
Oocytes of Xenopus laevis are prepared as previously described in [39] where the oocytes are isolated from surgically removed ovary segments incubated in an Oocyte Ringe solution Ca2-free (OR2: in mM: 82.5 NaCl, 2.5 KCl, 1.0 MgCl2, […], 1.0 Na2HPO4 e 5.0 HEPES, pH 7.5) with 2 mg/mL of collagenase and antibiotics (10,000 U/mL penicillin and 10 mg/mL of streptomycin) stirred at room temperature for 3 h. After being washed with OR2, oocytes free of follicular cells and that have a uniform pigmentation are chosen and stored in OR2 for 18 °C.
Mouse pannexin1, in pCS2, was linearised with NotI. In vitro transcription was performed with the polymerase SP6, using the Message Machine kit (Ambion). mRNA was quantified by absorbance (260 nm), and the proportion of full-length transcripts was checked by agarose gel electrophoresis. In vitro-transcribed mRNA (~20 nL) was injected into Xenopus laevis oocytes.
Whole-cell membrane currents of oocytes were measured using a two-electrode voltage clamp (Gene Clamp 500B, Axon Instruments/Molecular Devices Sunnyvale, Union City, CA, USA). Glass pipettes were pulled using a P-97 Flaming/Brown type puller (Sutter, Novato, CA, USA). The recording chamber was perfused continuously with frog Ringer (OR) solution (in mM: 82.5 NaCl, 2.5 KCl, 1 CaCl2, 1 MgCl2, 1 Na2HPO4, and 5 HEPES, pH 7.5).
Membrane conductance was determined using voltage pulses, and the pulse-induced current amplitudes were divided by the amplitudes of the voltage steps. For calculation of % inhibition, leak currents were subtracted. Typically, leak currents after the interventions were smaller than at the beginning of the experiment and this smaller value was used for the subtraction to avoid overestimation of the inhibitory effect. For an independent measure of the leak current, oocytes at the end of the experiment were exposed to 100 µM carbenoxolone, which is known to close Panx1 channels 100%. Oocytes expressing Panx1 were held at −60 mV, and pulses to +60 mV were applied to transiently open the channels by means of the voltage gate. Pulses 5 s in duration were applied at 0.1 Hz for current and conductance measurements.

Panx-1 channels [2] = target: T1, Panx-1 channels; experiment: as above; format: cell-based; settings: dose-response curves, Panx1-mediated membrane currents in oocytes

T1 sequence (Q9JIP4 whole entry): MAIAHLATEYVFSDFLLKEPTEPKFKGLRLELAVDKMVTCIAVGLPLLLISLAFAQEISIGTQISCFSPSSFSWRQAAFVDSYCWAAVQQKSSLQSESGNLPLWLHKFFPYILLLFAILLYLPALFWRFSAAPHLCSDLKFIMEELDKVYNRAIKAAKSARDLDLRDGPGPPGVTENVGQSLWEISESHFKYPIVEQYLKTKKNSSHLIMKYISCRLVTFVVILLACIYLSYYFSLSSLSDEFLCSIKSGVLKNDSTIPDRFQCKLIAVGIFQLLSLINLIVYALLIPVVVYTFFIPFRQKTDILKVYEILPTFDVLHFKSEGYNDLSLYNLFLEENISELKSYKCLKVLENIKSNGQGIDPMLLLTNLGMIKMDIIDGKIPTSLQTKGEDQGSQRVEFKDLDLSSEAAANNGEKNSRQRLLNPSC

| melting point | inhibition at 50 µM (Panx-1 channels [1]) | SMILES | further results |
| --- | --- | --- | --- |
| > 300 °C |  | O=C(O)c1ccc(CNc2cccc3cc(S(=O)(=O)O)ccc23)cc1 (hydrate or solvate) [Compound 4, 4-[(6-Sulfonaphthalen-1-yl)aminomethyl]benzoic Acid] |  |
| > 300 °C |  | CN(Cc1ccccc1)c1cccc2cc(S(=O)(=O)O)ccc12 (hydrate or solvate) [Compound 5, 5-(Benzyl(methyl)amino)naphthalene-2-sulfonic Acid] |  |
| > 300 °C |  | CCN(CC)S(=O)(=O)c1ccc(C(=O)Nc2cccc3cc(S(=O)(=O)O)ccc23)cc1 (hydrate or solvate) [Compound 7a, 5-[4-(N,N-diethylsulfamoyl)benzamido]naphthalene-2-sulfonic acid] |  |
| > 300 °C |  | CCCN(CCC)S(=O)(=O)c1ccc(C(=O)Nc2cccc3cc(S(=O)(=O)O)ccc23)cc1 (hydrate or solvate) [Compound 7b, 5-[4-(N,N-dipropylsulfamoyl)benzamido]naphthalene-2-sulfonic acid] |  |
| > 300 °C |  | CCCCN(CCCC)S(=O)(=O)c1ccc(C(=O)Nc2cccc3cc(S(=O)(=O)O)ccc23)cc1 (hydrate or solvate) [Compound 7c, 5-[4-(N,N-dibutylsulfamoyl)benzamido]naphthalene-2-sulfonic acid] |  |
| > 300 °C |  | O=C(Nc1cccc2cc(S(=O)(=O)O)ccc12)c1ccc(S(=O)(=O)N(Cc2ccccc2)Cc2ccccc2)cc1 (hydrate or solvate) [Compound 7d, 5-[4-(N,N-dibenzylsulfamoyl)benzamido]naphthalene-2-sulfonic acid] |  |
| > 300 °C |  | O=C(Nc1cccc2cc(S(=O)(=O)O)ccc12)c1ccc(S(=O)(=O)N(CCc2ccccc2)CCc2ccccc2)cc1 (hydrate or solvate) [Compound 7e, 5-[4-(N,N-diphenethylsulfamoyl)benzamido]naphthalene-2-sulfonic acid] |  |
| > 300 °C |  | O=C(Nc1cccc2cc(S(=O)(=O)O)ccc12)c1ccc(S(=O)(=O)N(CCc2ccccc2)Cc2ccccc2)cc1 (hydrate or solvate) [Compound 7f, 5-[4-(N-benzyl-N-phenethylsulfamoyl)benzamido]naphthalene-2-sulfonic acid] |  |
| > 300 °C |  | O=C(Nc1cccc2cc(S(=O)(=O)O)ccc12)c1ccc(S(=O)(=O)NCCc2ccccc2)cc1 (hydrate or solvate) [Compound 7g, 5-[4-(N-phenethylsulfamoyl)benzamido]naphthalene-2-sulfonic acid] |  |
| > 300 °C |  | O=C(O)c1ccc(CN(Cc2ccc(C(=O)O)cc2)S(=O)(=O)c2ccc(C(=O)O)cc2)cc1 (hydrate or solvate) [Compound 13, 4,4′-{{[(4-Carboxyphenyl)sulfonyl]azanediyl}bis(methylene)}dibenzoic acid] |  |
|  | 66.7 ± 5.5% | O=S(=O)(O)c1ccc2c(NCCCc3ccccc3)cccc2c1 [Compound 3c, 5-[(3-Phenylpropyl)amino]naphthalene-2-sulfonic acid] | IC50 (Panx-1 channels [2]): 9 µM |
| > 300 °C |  | COC(=O)c1ccc(CNc2cccc3cc(S(=O)(=O)O)ccc23)cc1 [Compound 3f, 5-[(4-(Methoxycarbonyl)benzyl)amino]naphthalene-2-sulfonic acid] |  |
|  | 67.8 ± 2.2% | CCCCN(CCCC)S(=O)(=O)c1ccc(C(=O)Nc2cccc3cc(S(=O)(=O)O)ccc23)cc1 [Compound 7c, 5-[4-(N,N-dibutylsulfamoyl)benzamido]naphthalene-2-sulfonic acid] | IC50 (Panx-1 channels [2]): 40.4 µM |
|  | 75% | O=C(Nc1cccc2cc(S(=O)(=O)O)ccc12)c1ccc(S(=O)(=O)N(Cc2ccccc2)Cc2ccccc2)cc1 [Compound 7d, 5-[4-(N,N-dibenzylsulfamoyl)benzamido]naphthalene-2-sulfonic acid] | I (%) inhibition of Panx-1 currents (Panx-1 channels [1]): 75.2 ± 5.90 (4) %; IC50 (Panx-1 channels [2]): 15.1 µM |
| 210 to 211 °C | 0% | Nc1c(C(=O)O)cnn1-c1ccc(S(N)(=O)=O)cc1 [Compound 17, 5-Amino-1-(4-sulfamoylphenyl)-1H-pyrazole-4-carboxylic acid] |  |
| 208 to 210 °C (dec.) | 0% | CCNS(=O)(=O)c1ccc(-n2ncc(C(=O)O)c2N)cc1 [Compound 18a, 5-Amino-1-(4-(N-ethylsulfamoyl)phenyl)-1H-pyrazole-4-carboxylic acid] |  |
| 215 to 218 °C | 4 ± 2.3% | CCCNS(=O)(=O)c1ccc(-n2ncc(C(=O)O)c2N)cc1 [Compound 18b, 5-Amino-1-(4-(N-propylsulfamoyl)phenyl)-1H-pyrazole-4-carboxylic acid] |  |
| > 300 °C | 10.3 ± 4.9% | CCCCNS(=O)(=O)c1ccc(-n2ncc(C(=O)O)c2N)cc1 [Compound 18c, 5-Amino-1-(4-(N-butylsulfamoyl)phenyl)-1H-pyrazole-4-carboxylic acid] |  |
| 240 °C (dec.) | 14.3 ± 7.4% | CCN(CC)S(=O)(=O)c1ccc(-n2ncc(C(=O)O)c2N)cc1 [Compound 19a, 5-Amino-1-(4-(N,N-diethylsulfamoyl)phenyl)-1H-pyrazole-4-carboxylic acid] |  |
| 167 to 168 °C | 21 ± 7.8% | CCCN(CCC)S(=O)(=O)c1ccc(-n2ncc(C(=O)O)c2N)cc1 [Compound 19b, 5-Amino-1-(4-(N,N-dipropylsulfamoyl)phenyl)-1H-pyrazole-4-carboxylic acid] |  |
| 170 to 172 °C | 28 ± 6.9% | CCCNc1c(C(=O)O)cnn1-c1ccc(S(=O)(=O)N(CCC)CCC)cc1 [Compound 19c, 1-(4-(N,N-dipropylsulfamoyl)phenyl)-5-(propylamino)-1H-pyrazole-4-carboxylic acid] |  |
| 207 to 210 °C | 16.3 ± 6.4% | Nc1c(C(=O)O)cnn1-c1ccc(S(=O)(=O)NCc2ccccc2)cc1 [Compound 23, 5-Amino-1-(4-(N-benzylsulfamoyl)phenyl)-1H-pyrazole-4-carboxylic acid] |  |
| 168 to 170 °C | 42% | Nc1c(C(=O)O)cnn1-c1ccc(S(=O)(=O)N(Cc2ccccc2)Cc2ccccc2)cc1 [Compound 24, 5-Amino-1-(4-(N,N-dibenzylsulfamoyl)phenyl)-1H-pyrazole-4-carboxylic acid] | I (%) inhibition of Panx-1 currents (Panx-1 channels [1]): 42.7 ± 2.4 (4) %; classification as active or inactive Panx-1 blocker (Panx-1 channels [1]; grouping chosen for the virtual screening): inactive |
| 186 to 188 °C | 22.7 ± 5.5% | Nc1c(C(=O)O)cnn1-c1ccc(S(=O)(=O)NCCc2ccccc2)cc1 [Compound 28, 5-Amino-1-(4-(N-phenethylsulfamoyl)phenyl)-1H-pyrazole-4-carboxylic acid] |  |
| 105 to 107 °C | 25.3 ± 0.9% | O=C(O)c1cnn(-c2ccc(S(=O)(=O)NCCc3ccccc3)cc2)c1NCCc1ccccc1 [Compound 29, 5-(Phenethylamino)-1-(4-(N-phenethylsulfamoyl)phenyl)-1H-pyrazole-4-carboxylic acid] |  |
| 263 to 266 °C (dec.) | 30 ± 7.2% | Nc1c(C(=O)O)cnn1-c1ccc(S(=O)(=O)N(CCc2ccccc2)Cc2ccccc2)cc1 [Compound 30, 5-Amino-1-(4-(N-benzyl-N-phenethylsulfamoyl)phenyl)-1H-pyrazole-4-carboxylic acid] |  |
